Source: the CheMixHub ionic liquid set
Where “and” joins values, the source holds several entries; their conditions need not be identical. Equal entries are not always repeated.

Experiment: xn = mol fraction of the nth substance listed
Details: 101 kPa

O=S(=O)([N-]S(=O)(=O)C(F)(F)C(F)(F)F)C(F)(F)F.[Li+] + O=S(=O)([O-])C(F)(F)F.[Li+] + O
Details	electrical conductivity, x1 = 0.1527, x2 = 0.1527 [S/m]	electrical conductivity, x1 = 0.2128, x2 = 0.08265	electrical conductivity, x1 = 0.2128, x2 = 0.1527 [S/m]	electrical conductivity, x1 = 0.2551, x2 = 0.08265	electrical conductivity, x1 = 0.2649, x2 = 0 [S/m]	electrical conductivity, x1 = 0.3106, x2 = 0.1527 [S/m]	viscosity, x1 = 0.2128, x2 = 0.08265 [mPa·s]	viscosity, x1 = 0.2551, x2 = 0.08265 [mPa·s]	viscosity, x1 = 0.2649, x2 = 0 [mPa·s]
283 K	–	0.39 S/m	–	0.195 S/m	0.36	–	186	406	255
293 K	–	0.57 S/m	–	0.298 S/m	0.531	–	110	228	145
298.1 K	0.83	0.675 S/m and 0.68 S/m	0.41	0.362 S/m and 0.37 S/m	0.646	0.16	87	177	114
303 K	–	0.788 S/m	–	0.433 S/m	0.762	–	70.9	141	89.8
313 K	–	1.05 S/m	–	0.599 S/m	1.02	–	48.4	90.1	58.8
323 K	–	1.36 S/m	–	0.791 S/m	1.33	–	33.9	61.6	40.2
333 K	–	1.7 S/m	–	1.02 S/m	1.67	–	24.8	43.2	29.1

C[N+](C)(CCO)CCOCCO.[Cl-] + OCCO
x1 = 0.3333
Details	viscosity [mPa·s]
283.15 K	242.4
288.15 K	177.4
293.15 K	131.9
298.15 K	100.9
303.15 K	78.8
308.15 K	62.2
313.15 K	49.8
318.15 K	40.49
323.15 K	33.3
328.15 K	27.72
333.15 K	23.38
338.15 K	19.82
343.15 K	17
348.15 K	14.73
353.15 K	12.94
